test system: spike-FP12 peptide; format: binding, SARS-CoV-2

Going from QLEHVKLFMQDLSAML to GPDRNFRLSEHRQALA, the “% Count” value falls from 9.07% to 6.59%.

SFQYADIYEQMMLTGL and HPNIKRVTPQRKVFRS are the same in “% Count” value: 0.01% for the first, 0.01% for the second.

Going from GSSYAEMEVMKMIMTL to NFRLSEHRQALAAAKH, the “% Count” value falls from 0.06% to 0.00%.

Going from TLPFGDVEYVDLDAFL to DTLLPTQQAEVLHPVV, the “% Count” value rises from 0.29% to 2.70%.

Going from QLEHVKLFMQDLSAML to GPDRNFRLSEHRQALA, the “Count (read counts of phage display binding to FP)” value falls from 4673 to 3393.

Compared with SFQYADIYEQMMLTGL, HPNIKRVTPQRKVFRS is lower in “Count (read counts of phage display binding to FP)” value: 5 for the first, 3 for the second.

First: GSSYAEMEVMKMIMTL
Second: NFRLSEHRQALAAAKH
The “Count (read counts of phage display binding to FP)” value of the first is higher: 31 for the first, 2 for the second.

Going from TLPFGDVEYVDLDAFL to DTLLPTQQAEVLHPVV, the “Count (read counts of phage display binding to FP)” value rises from 148 to 1392.

Reference: article PMC12844208, “Screening for Peptides to Bind and Functionally Inhibit SARS-CoV-2 Fusion Peptide Using Mirrored Combinatorial Phage Display and Human Proteomic Phage Display” (Molecules, 2026)
